The values that follow come from patent US12202840B2, “Compounds for the treatment or alleviation of disorders associated with Tau aggregates” (AC Immune SA, priority 2018, dated 2025).

A value given as a limit tells only on which side of the number the result lay.

For assay [1], the system named is human neuroblastoma cell line overexpressing the full-length form of human Tau carrying the P301L mutation. As to the kind of experiment: Reduction of intracellular Tau aggregation (AlphaLISA). The format is cell-based. Particulars: compound at 5 μM, 24 h; aggregated Tau normalized to total Tau, relative to DMSO-treated cells. The protocol:
Reduction of Intracellular Tau Aggregation
A human neuroblastoma cell line overexpressing the full-length form of human Tau carrying the P301L mutation was cultured in complete medium [DMEM-F12 4.5 g/L Glutamax (Invitrogen), 15% FBS (Biochrom), 1% Peni/Strep (Invitrogen) supplemented with 2.5 μg/ml of G418 (Sigma-Aldrich) selection antibiotic]. The day before the experiment 5×10^5 cells/well were plated in a 6 well plate in 3 mL of complete medium. The next day, cells were incubated with DMSO or a compound of the present invention at a 5 μM for additional 24 h at 37° C. After incubation, cells were trypsinized, resupsended in 100 μl of homogenization buffer [25 mM Tris-HCl pH 7.4, 150 mM NaCl, 1 mM EDTA, 1 mM EGTA containing phosphatase inhibitors (30 mM NaF, 0.2 mM Na3VO4, 1 nM Okadaic acid, 1 mM PMSF, 5 mM Na4P2O7) and protease inhibitor cocktail (Complete™, Roche)], and then physically lysed with three rapid cycles of freezing and thawing. Samples were then directly tested in the AlphaLISA assay.
Phosphorylated, aggregated, and total Tau were quantified by AlphaLisa using the following antibody pairs: • HT7-Acceptor beads+biotin (BT)-Tau13-Donor beads: Total Tau • HT7-Acceptor beads+biotin (BT)-HT7-Donor beads: Aggregated human Tau
The Tau13 (Abcam) was biotinylated using EZ-Link® NHS-PEO Solid Phase biotinylation kit (Thermo Scientific), while the HT7-biotin was from a commercial source (Thermo Scientific).
For each antibody pairs the concentration of acceptor beads and biotinylated antibodies was optimized. All samples were first tested in a dilution series in PBS in order to identify the linear range and optimal dilution for each sample and assay. For the final protocol, the following reagents were added in a 384-well white OptiPlate (Perkin Elmer): • 5 μL of test diluted sample • 20 μL of the mixture biotin-mAb acceptor beads at the following final concentrations: • HT7-BT at 1.25 nM in combination with HT7-Acc beads at 10 μg/ml • Tau13-BT at 5 nM in combination with HT7-Acc beads at 2.5 μg/ml
After incubation of this mixture at room temperature for 1 h, 25 μL of Streptavidin Donor beads (Perkin Elmer) at 25 μg/mL were added in the dark. Plates were analyzed after 30 min incubation using the EnSpire Alpha instrument and EnSpire Workstation version 3.00.
Data for aggregated Tau were normalized to total Tau and then expressed as percentage of the DMSO-treated cells.

Assay [2] has as its target T1, K18 aggregates (Tau K18 fragment, amino acids 244 to 372 of human Tau441) (Homo sapiens, UniProt P10636).
T1 construct: encompassing amino acids 244 to 372 of the longest isoform (2N4R) of human Tau441; host or cells: bacteria
As to the kind of experiment: Tau K18 disaggregation assay by ThT. The format is biochemical. The note with it: 2 μM K18 aggregates, 160 to 0.04 μM compound, 30 minutes RT, ThT fluorescence; read-out: TauK18 disaggregation EC50. As for the experimental part:
Tau K18 Disaggregation Assay by ThT
The Tau K18 fragment, encompassing amino acids 244 to 372 of the longest isoform (2N4R) of human Tau441, was expressed in bacteria and purified or bought from SignalChem. For the K18 disaggregation assay by ThT, 35 μM of recombinant K18 in PBS were aggregated for 24 hours at 37° C. in presence of 50 μM of heparin (Sigma-Aldrich) and 10 mM of DTT (Sigma-Aldrich) under shaking at 750 RPM. Compounds were dissolved in anhydrous dimethyl sulfoxide (DMSO, Sigma-Aldrich) to reach a concentration of 10 mM. K18 aggregates and serial dilutions of compounds were mixed together in PBS (volume 50 μL) to a final concentration of 2 μM of K18 aggregates and from 160 to 0.04 μM of compounds. The mixture was incubated for 30 minutes at room temperature (RT), then 40 μL of this mixture were transferred into a black 384-well plate assay (Perkin-Elmer) and mixed with 10 μL of 100 μM ThT in 250 mM glycine (both from Sigma-Aldrich) in PBS. Fluorescence (relative fluorescence units; RFU) was measured in monoplicate or duplicate on a Tecan reader (excitation: 440 nm; emission: 485 nm). Percentage of K18 disaggregation was then calculated and half maximal effective concentration (EC50) was determined using GraphPad Prism version 5 (GraphPad Software) assuming a one-binding site fitting model.

Assay [3] deals with T2, flTau aggregates (longest isoform of human Tau, 2N4R; 441 amino acids) (Homo sapiens, UniProt P10636).
T2 construct: 35 μM of recombinant full-length (fl)Tau in PBS were aggregated for 24 hours; made in house; host or cells: bacteria
T2 sequence (P10636 1-441 isoform P10636-8): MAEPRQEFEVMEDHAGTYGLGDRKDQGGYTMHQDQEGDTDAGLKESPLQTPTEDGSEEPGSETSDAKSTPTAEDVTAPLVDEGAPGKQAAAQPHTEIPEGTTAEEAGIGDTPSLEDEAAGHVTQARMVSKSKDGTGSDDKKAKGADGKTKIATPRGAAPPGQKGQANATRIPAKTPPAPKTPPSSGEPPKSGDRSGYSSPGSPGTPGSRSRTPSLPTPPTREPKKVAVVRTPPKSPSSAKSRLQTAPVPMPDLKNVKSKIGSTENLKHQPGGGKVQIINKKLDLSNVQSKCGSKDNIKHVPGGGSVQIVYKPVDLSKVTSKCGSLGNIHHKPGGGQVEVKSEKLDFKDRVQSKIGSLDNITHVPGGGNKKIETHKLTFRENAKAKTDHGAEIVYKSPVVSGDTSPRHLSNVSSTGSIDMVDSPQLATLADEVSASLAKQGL
In words: Full-length Tau (flTau) disaggregation assay by Thioflavin T (ThT). The format is biochemical. Particulars: 2 μM flTau aggregates, 160 to 0.04 μM compound, 30 minutes RT, ThT fluorescence. As for the experimental part: Biological Assay Description Full-Length Tau (flTau) Disaggregation Assay by Thioflavin T (ThT)
The longest isoform of human Tau (2N4R; 441 amino acids) was expressed in bacteria and purified. For the Tau disaggregation assay by ThT, 35 μM of recombinant full-length (fl)Tau in PBS were aggregated for 24 hours at 37° C. in presence of 50 μM of heparin (Sigma-Aldrich) and 10 mM of DTT (Sigma-Aldrich) under shaking at 750 RPM. Compounds were dissolved in anhydrous dimethyl sulfoxide (DMSO, Sigma-Aldrich) to reach a concentration of 10 mM.
flTau aggregates and serial dilutions of compounds were mixed together in PBS (volume 50 μL) to a final concentration of 2 μM of flTau aggregates and from 160 to 0.04 μM of compounds. The mixture was incubated for 30 minutes at room temperature (RT), then 40 μL of this mixture were transferred into a black 384-well plate assay (Perkin-Elmer) and mixed with 10 μL of 100 μM ThT in 250 mM glycine (both from Sigma-Aldrich) in PBS. Fluorescence (relative fluorescence units; RFU) was measured in monoplicate or duplicate on a Tecan reader (excitation: 440 nm; emission: 485 nm). Percentage of flTau disaggregation was then calculated and the halfmaximal effective concentration (EC50) was determined using GraphPad Prism version 5 (GraphPad Software) assuming a one-binding site fitting model.

T1 sequence (P10636 561-689): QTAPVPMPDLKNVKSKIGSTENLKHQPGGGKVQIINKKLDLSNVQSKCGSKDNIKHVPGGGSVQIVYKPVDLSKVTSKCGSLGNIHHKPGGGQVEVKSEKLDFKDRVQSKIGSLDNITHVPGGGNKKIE

As for `CN(C)C1CCc2c(c3ccc(Nc4ccc5sc(N6CCC(F)CC6)nc5c4)nc3n2C)C1` (stereo not drawn) [Example 3], the “% Reduction of intracellular Tau aggregation” value in assay [1] is listed as “++ (++ %50 < x < 25)”. The EC50 in assay [2] and in assay [3] was < 10 µM throughout.

For `CN(C)C1CCc2oc3nc(Nc4ccc5sc(N6CCOCC6)nc5c4)ccc3c2C1` (stereo not drawn) [Example 5], the 50% effective concentration (EC50) in assay [2] was < 10 µM.

As to `CC(C)N1CCc2c(c3ccc(Nc4ccc5sc(N6CCC(F)CC6)nc5c4)nc3n2C)C1` [Example 6], the EC50 in assay [2] and in assay [3] was < 10 µM each time. As to `CC(C)N1CCc2oc3nc(Nc4ccc5nc(N6CCOCC6)sc5c4)ccc3c2C1` [Example 7], in assay [2], the EC50 is < 10 µM.

In the case of `CC(C)N1CCc2oc3nc(Nc4ccc5sc(N6CCOCC6)nc5c4)ccc3c2C1` [Example 8], in assay [2], the EC50 lay in the range of 25 to 50 µM. The same measure, in the same setting: with `CN(C)C1CCc2c(c3ccc(Nc4ccc5sc(N6CCOCC6)nc5c4)nc3n2C)C1` (stereo not drawn) [Example 9] the figure was < 10 µM.

Regarding `CN(C)C1CCc2c(c3ccc(Nc4ccc5nc(N6CCOCC6)sc5c4)nc3n2C)C1` (stereo not drawn) [Example 10], the concentration for a half-maximal effect (EC50) in assay [2] and in assay [3] was < 10 µM in each case. On to `CN(C)[C@H]1CCc2c(c3ccc(Nc4ccc5sc(N6CCOCC6)nc5c4)nc3n2C)C1` [Example 11], for which the EC50 in assay [2] and in assay [3] was < 10 µM throughout. Take `CN(C)[C@H]1CCc2c(c3ccc(Nc4ccc5nc(N6CCOCC6)sc5c4)nc3n2C)C1` [Example 13]: the 50% effective concentration (EC50) in assay [2] and in assay [3] was < 10 µM throughout. Consider `CN(C)C1CCc2c(c3ccc(Nc4ccc5nc(N6CCC(F)CC6)sc5c4)nc3n2C)C1` (stereo not drawn) [Example 14], for which the EC50 in assay [2] and in assay [3] was 10 to 25 µM in each case. With `CN(C)C1CCc2c(c3ccc(Nc4ccc5sc(N6CCC[C@H](F)C6)nc5c4)nc3n2C)C1` (stereo partly drawn) [Example 15], the half-maximal effective concentration (EC50) in assay [2] and in assay [3] was < 10 µM each time. As to `CN(C)C1CCc2c(c3ccc(Nc4ccc5sc(N6CCC[C@@H](F)C6)nc5c4)nc3n2C)C1` (stereo partly drawn) [Example 16], the concentration for a half-maximal effect (EC50) in assay [2] and in assay [3] was < 10 µM each time. Take `CN(C)[C@@H]1CCc2c(c3ccc(Nc4ccc5nc(N6CCOCC6)oc5c4)nc3n2C)C1` [Example 17]: the concentration for a half-maximal effect (EC50) in assay [3] fell in the range of 25 to 50 µM. On to `CN(C)[C@@H]1CCc2c(c3ccc(Nc4ccc5oc(N6CCOCC6)nc5c4)nc3n2C)C1` [Example 18], for which the EC50 in assay [2] lay in the range of 10 to 25 µM; in assay [3], 25 to 50 µM. The corresponding values for `CN(C)[C@@H]1CCc2c(c3ccc(Nc4ccc5nc(N6CCC[C@@H](F)C6)oc5c4)nc3n2C)C1` [Example 19] are 10 to 25 µM and 10 to 25 µM. As to `CN(C)C1CCc2oc3nc(Nc4ccc5nc(N6CCOCC6)sc5c4)ccc3c2C1` (stereo not drawn) [Example 20], the concentration for a half-maximal effect (EC50) in assay [2] is 25 to 50 µM. As to `CN(C)[C@H]1CCc2oc3nc(Nc4ccc5nc(N6CCOCC6)sc5c4)ccc3c2C1` [Example 21], the EC50 in assay [2] lay in the range of 10 to 25 µM. Still for that read-out and setting: with `CN(C)[C@@H]1CCc2oc3nc(Nc4ccc5nc(N6CCOCC6)sc5c4)ccc3c2C1` [Example 22] the figure was 25 to 50 µM. Take `CN(C)C1CCc2oc3nc(Nc4ccc5nc(N6CCOCC6)oc5c4)ccc3c2C1` (stereo not drawn) [Example 28]: in assay [2], the half-maximal effective concentration (EC50) was 10 to 25 µM. `CN(C)C1CCc2[nH]c3nc(Nc4ccc5nc(N6CCOCC6)sc5c4)ccc3c2C1` (stereo not drawn) [Example 29]: in assay [3], the concentration giving a half-maximal response (EC50) is < 10 µM.

As for `CN(C)C1CCc2[nH]c3nc(Nc4ccc5oc(N6CCOCC6)nc5c4)ccc3c2C1` (stereo not drawn) [Example 30], the EC50 in assay [3] is < 10 µM. With `CN(C)C1CCc2oc3nc(Nc4ccc5oc(N6CCOCC6)nc5c4)ccc3c2C1` (stereo not drawn) [Example 31], the EC50 is 10 to 25 µM in assay [2] and < 10 µM in assay [3]. With `CN(C)C1CCc2[nH]c3nc(Nc4ccc5nc(N6CCOCC6)oc5c4)ccc3c2C1` (stereo not drawn) [Example 32], the concentration giving a half-maximal response (EC50) in assay [3] was in the range of 10 to 25 µM.

As to `CN(C)[C@@H]1CCc2oc3nc(Nc4ccc5sc(N6CCOCC6)nc5c4)ccc3c2C1` [Example 33], the half-maximal effective concentration (EC50) in assay [2] was < 10 µM. Consider `CN(C)[C@H]1CCc2oc3nc(Nc4ccc5sc(N6CCOCC6)nc5c4)ccc3c2C1` [Example 34], for which the concentration giving a half-maximal response (EC50) in assay [2] is < 10 µM. `CN(C)[C@H]1CCc2oc3nc(Nc4ccc5oc(N6CCOCC6)nc5c4)ccc3c2C1` [Example 35]: the 50% effective concentration (EC50) in assay [2] was < 10 µM.

`CN(C)[C@@H]1CCc2oc3nc(Nc4ccc5oc(N6CCOCC6)nc5c4)ccc3c2C1` [Example 36]: the EC50 in assay [2] lay within 10 to 25 µM.
